Molecules are shown by their SMILES. Like-named read-outs stand apart in the source and are kept apart here. Marks after values point to notes of the source that are not given here.

Usually IC50 stands for the concentration that inhibits the measured activity by half.

What all share (type): cell-based
Experiment [1] concerns MDA-MB-231 breast cancer cells. Briefly: MTT cell viability assay, MDA-MB-231. On the procedure:
(§1) Cell viability of MDA-MB-231 breast cancer cells was evaluated by using the MTT assay in triple replicates in one experiment and repeated for three times (FIG. 3). […] The cells were incubated at 37° C. for a period of 24 hours. Escalating concentrations of IL-6/gp130 inhibitors (e.g., compounds of Formula (A), (B), (C), (D), (E), or (F) including LLM-418, bazedoxifene, LS-28-3, and COMP-D (LS-101-D)) were added in triplicate to the plates in the presence of 10% FBS. After incubation for 72 hours (unless otherwise noted), a stock solution of MTT (0.5 mg/ml) was then added to each well containing the treated cells, followed by incubation at 37° C. for 3 h. After removal of medium, the MTT dye was dissolved with spectrophotometric grade DMSO and the absorbance was read at 570 nm. The IC50 value is determined by interpolation based on the absorbance value halfway between positive and negative controls.
(In general: Tetrazolium dyes change colour on reduction, which living cells bring about.)

Experiment [2] deals with SUM159 breast cancer cells. Briefly: MTT cell viability assay, SUM159. The settings on record: for IC50 / IC50 Values in Breast Cancer Cell Lines, SUM159 / SUM159 IC50: 72 hours, Inactive = no measurable activity at 20 μM. As to the method: Cell viability of MDA-MB-231 breast cancer cells was evaluated by using the MTT assay in triple replicates in one experiment and repeated for three times (FIG. 3). MDA-MB-231 SUM159, SUM159 […], MDA-MB-231 breast cancer cells or SUM149 or HCC1937 BRCA mutant breast cancer cells were seeded in 96-well plates at a density of 3,000 cells per well. The cells were incubated at 37° C. for a period of 24 hours. Escalating concentrations of IL-6/gp130 inhibitors (e.g., compounds of Formula (A), (B), (C), (D), (E), or (F) including LLM-418, bazedoxifene, LS-28-3, and COMP-D (LS-101-D)) were added in triplicate to the plates in the presence of 10% FBS. After incubation for 72 hours (unless otherwise noted), a stock solution of MTT (0.5 mg/ml) was then added to each well containing the treated cells, followed by incubation at 37° C. for 3 h. After removal of medium, the MTT dye was dissolved with spectrophotometric grade DMSO and the absorbance was read at 570 nm. The IC50 value is determined by interpolation based on the absorbance value halfway between positive and negative controls.

Experiment [3] concerns MDA-MB-231 Bone Metastatic breast cancer cells. Briefly: MTT cell viability assay, MDA-MB-231 Bone Metastatic. The settings on record: 72 hours. On the procedure: as §1
The subject of experiment [4] is SUM159 gp130ko breast cancer cells. Briefly: MTT cell viability assay, SUM159 gp130ko. Particulars: 72 hours, read-out: IC50 Values in Breast Cancer Cell Lines, SUM159 gp130ko. As to the method:
as §1

[5] abbreviates: Homo sapiens, MDA-MB-231, Table 3 batch studies (independent from Table 1), MTT, 72 hours, Inactive = no measurable activity at 20 μM, read-out: MDA-MB-231 IC50.
[6] abbreviates: SUM159, Table 3 batch studies (independent from Table 1), read-out: SUM159 IC50.
Where [7] appears, read: Homo sapiens, MDA-MB-231, Table 1 batch studies, MTT, 72 hours, Inactive = no measurable activity at 20 μM, read-out: IC50 Values in Breast Cancer Cell Lines, MDA-MB-231.
[8] abbreviates: SUM159, Table 1 batch studies, read-out: IC50 Values in Breast Cancer Cell Lines, SUM159.
[9] abbreviates: Table 1 batch studies, MTT, 72 hours, Inactive = no measurable activity at 20 μM, read-out: IC50 Values in Breast Cancer Cell Lines, MDA-MB-231.
Setting [10] is: Table 3 batch studies (independent from Table 1), MTT, 72 hours, Inactive = no measurable activity at 20 μM, read-out: MDA-MB-231 IC50.
Setting [11] is: Table 1 batch studies, read-out: IC50 Values in Breast Cancer Cell Lines, SUM159.
The mark [12] stands for this setting: Table 3 batch studies (independent from Table 1), read-out: SUM159 IC50.
[13] abbreviates: Table 1 batch studies, MTT, 72 hours, Inactive = no measurable activity at 20 μM.
The mark [14] stands for this setting: Table 3 batch studies (independent from Table 1), MTT, 72 hours, Inactive = no measurable activity at 20 μM.
The mark [15] stands for this setting: Table 3 batch studies (independent from Table 1).

Turning to `Cc1c(-c2ccc(O)cc2)n(Cc2ccc(OCCN3CCCCCC3)cc2)c2ccc(O)cc12` [Bazedoxifene, bazedoxifene, reference compound], the IC50 in experiment [1] (setting [5]) was 12 µM; in experiment [2] (setting [6]), 7.1 µM.
Take `O=C(Nc1ccccc1-n1cccc1)c1ccc(OCCCN2CCCCC2)cc1` [LLM4-S1, N-(2-(1H-pyrrol-1-yl)phenyl)-4-(3-(piperidin-1-yl)propoxy)benzamide]: the IC50 in experiment [1] (setting [7]) was 53.1 µM; in experiment [1] (setting [5]) it was 53.1 µM; in experiment [2] (setting [8]) it was 58.7 µM; in experiment [2] (setting [6]) it was 58.7 µM.
For `O=C(Nc1cc(F)ccc1N1CCCC1)c1ccc(OCCCN2CCCCC2)cc1` [LLM4-S2, N-(5-fluoro-2-(pyrrolidin-1-yl)phenyl)-4-(3-(piperidin-1-yl)propoxy)benzamide], the IC50 in experiment [1] (setting [7]) worked out at 47.8 µM; in experiment [1] (setting [5]) it was 47.8 µM; in experiment [2] (setting [8]), 24.7 µM; in experiment [2] (setting [6]), 24.7 µM.
As for `O=C(Nc1ccccc1N1CCCC1)c1ccc(OCCCN2CCCCC2)cc1` [LLM4-S3, 4-(3-(piperidin-1-yl)propoxy)-N-(2-(pyrrolidin-1-yl)phenyl)benzamide], the IC50 was 49.1 µM in experiment [1] (setting [7]), 49.1 µM in experiment [1] (setting [5]), 46.1 µM in experiment [2] (setting [8]) and 46.1 µM in experiment [2] (setting [6]).
For `O=C(Nc1cc(F)ccc1-n1cccc1)c1ccc(OCCCN2CCCCC2)cc1` [LLM4], the IC50 in experiment [1] (setting [9]) was 47.7 µM; in experiment [1] (setting [10]), 47.7 µM; in experiment [2] (setting [11]) it was 31.1 µM; in experiment [2] (setting [12]), 31.1 µM.
For the compound `O=C(Nc1ccccc1-c1ccn[nH]1)c1ccc(OCCN2CCCCC2)cc1` [LLM418, N-(2-(1H-pyrazol-5-yl)phenyl)-4-(2-(piperidin-1-yl)ethoxy)benzamide], the IC50 worked out at 23.7 µM in experiment [3] (Homo sapiens, MDA-MB-231, Table 1 batch studies, read-out: IC50 Values in Breast Cancer Cell Lines, MDA-MB-231 Bone Metastatic); 23.7 µM in experiment [3] (Homo sapiens, MDA-MB-231, Table 3 batch studies (independent from Table 1), read-out: MDA-MB-231 Bone Metastatic IC50); 25.1 µM in experiment [1] (setting [7]); 28.1 µM in experiment [1] (setting [5]); 16.3 µM in experiment [2] (setting [8]); 16.3 µM in experiment [2] (setting [6]). In experiment [4] (SUM159, Table 1 batch studies), the IC50 came to 22.5 µM.
With `O=C(Nc1ccccc1-c1ccn(CC(F)(F)F)n1)c1ccc(OCCN2CCCCC2)cc1` [LLM418-MCF3, 4-(2-(piperidin-1-yl)ethoxy)-N-(2-(1-(2,2,2-trifluoroethyl)-1H-pyrazol-3-yl)phenyl)benzamide], the 50% inhibitory concentration (IC50) in experiment [1] (setting [7]) amounted to 169 µM; in experiment [1] (setting [5]), 169 µM; in experiment [2] (setting [8]) it was 16 µM; in experiment [2] (setting [6]) it was 16 µM.
For the compound `CCCn1ccc(-c2ccccc2NC(=O)c2ccc(OCCN3CCCCC3)cc2)n1` [LLM418-Pr, N-(2-(1-propyl-1H-pyrazol-3-yl)phenyl)-4-(2-(piperidin-1-yl)ethoxy)benzamide], the IC50 in experiment [1] (setting [7]) and in experiment [1] (setting [5]) was 5.8 µM in each case.
For the compound `c1ccc2c(c1)nc(-c1ccc(OCCN3CCCCC3)cc1)n1nccc21` [LLM418-SC, 5-(4-(2-(piperidin-1-yl)ethoxy)phenyl)pyrazolo[1,5-c]quinazoline], the IC50 in experiment [1] (Homo sapiens, MDA-MB-231, Table 1 batch studies, 48-hour MTT, read-out: IC50, MDA-MB-231, 48-hour MTT) was 11.3 µM; in experiment [1] (Homo sapiens, MDA-MB-231, Table 3 batch studies, 48-hour MTT, read-out: MDA-MB-231 IC50, 48-hour MTT), 11.3 µM.
Take `CC(C)[C@H]1COC(=O)N1c1ccc(C(=O)Nc2ccccc2-c2cc[nH]n2)cc1` [LS-28-2, (S)—N-(2-(1H-pyrazol-3-yl)phenyl)-4-(4-isopropyl-2-oxooxazolidin-3-yl)benzamide]: the “Percent cells remaining after treatment with 20 μM compound, MDA-MB-231” value was determined as 21%* in experiment [1] (Table 1 batch studies, MTT) and 21%* in experiment [1] (Table 3 batch studies, MTT). The “Percent cells remaining after treatment with 20 μM compound, SUM159” value in experiment [2] (Table 1 batch studies) and in experiment [2] (Table 3 batch studies) was 33%* in each case.
As for `CC1(C)O[C@@H]2[C@@H](CO[C@@]3(Cn4cc(-c5cccc(NC(=O)c6ccc(OCCN7CCCCC7)cc6)c5)nn4)OC(C)(C)O[C@@H]23)O1` [LS-TF-3P], the results for the IC50 in experiment [1] (setting [10]) and in experiment [2] (setting [12]) were 67 µM and 16 µM, respectively.
`CC1(C)O[C@@H]2[C@@H](CO[C@@]3(Cn4cc(-c5ccc(NC(=O)c6ccc(OCCN7CCCCC7)cc6)cc5)nn4)OC(C)(C)O[C@@H]23)O1` [LS-TF-4P]: the IC50 stood at 26.7 µM in experiment [3] (Table 3 batch studies (independent from Table 1), read-out: MDA-MB-231 Bone Metastatic IC50); 18.4 µM in experiment [1] (setting [9]); 18.4 µM in experiment [1] (setting [10]); 26.1 µM in experiment [2] (setting [11]); 26.1 µM in experiment [2] (setting [12]); 26.7 µM in experiment [4] (Table 1 batch studies).
On to `O=C(Nc1ccccc1-c1cn([C@@H]2OC[C@@H](O)[C@H](O)[C@H]2O)nn1)c1ccc(OCCN2CCCCC2)cc1` [LS-TX-2, 4-(2-(piperidin-1-yl)ethoxy)-N-(2-(1-((2R,3R,4S,5R)-3,4,5-trihydroxytetrahydro-2H-pyran-2-yl)-1H-1,2,3-triazol-4-yl)phenyl)benzamide·acetic acid], for which, in experiment [1] (setting [13]), the “IC50 Values in Breast Cancer Cell Lines, MDA-MB-231” value (shortened to “IC50 Values … MDA-MB-231”) is listed as “Inactive”. For the same compound, the “MDA-MB-231 IC50” value in experiment [1] (setting [14]) is recorded as “Inactive”. The “IC50 Values in Breast Cancer Cell Lines, SUM159” value (“IC50 Values … SUM159” below) in experiment [2] (Table 1 batch studies) was “Inactive”. Besides, the “SUM159 IC50” value in experiment [2] (setting [15]) is given as “Inactive”.
With `O=C(Nc1cccc(-c2cn([C@@H]3OC[C@@H](O)[C@H](O)[C@H]3O)nn2)c1)c1ccc(OCCN2CCCCC2)cc1` [LS-TX-3, 4-(2-(piperidin-1-yl)ethoxy)-N-(3-(1-((2R,3R,4S,5R)-3,4,5-trihydroxytetrahydro-2H-pyran-2-yl)-1H-1,2,3-triazol-4-yl)phenyl)benzamide·acetic acid], the “IC50 Values … MDA-MB-231” value in experiment [1] (setting [13]) is “Inactive”. Moreover, in experiment [1] (setting [14]), the “MDA-MB-231 IC50” value was “Inactive”. The “IC50 Values … SUM159” value in experiment [2] (Table 1 batch studies) is reported as “Inactive”. In addition, in experiment [2] (setting [15]), the “SUM159 IC50” value is “Inactive”.
On to `O=C(Nc1ccc(-c2cn([C@@H]3OC[C@@H](O)[C@H](O)[C@H]3O)nn2)cc1)c1ccc(OCCN2CCCCC2)cc1` [LS-TX-4, 4-(2-(piperidin-1-yl)ethoxy)-N-(4-(1-((2R,3R,4S,5R)-3,4,5-trihydroxytetrahydro-2H-pyran-2-yl)-1H-1,2,3-triazol-4-yl)phenyl)benzamide·acetic acid], for which the “IC50 Values … MDA-MB-231” value in experiment [1] (setting [13]) is recorded as “Inactive”. Moreover, in experiment [1] (setting [14]), the “MDA-MB-231 IC50” value is “Inactive”. The “IC50 Values … SUM159” value in experiment [2] (Table 1 batch studies) is “Inactive”. Also, the “SUM159 IC50” value in experiment [2] (setting [15]) was “Inactive”.

Values taken from patent publication US20240246943A1, “MULTIFACETED APPROACH TO NOVEL INTERLEUKIN-6 INHIBITORS” (UNIVERSITY OF FLORIDA RESEARCH FOUNDATION, INCORPORATED, priority 2021, published 2024).
